What was measured:
[1] = test system: B cell malignancy cell lines; experiment: BCMA mRNA relative to GAPDH by qPCR in cell lines; type: cell-based; details: 100 nM, 24 h, prior and after γ-secretase inhibition
Procedure: To evaluate whether other malignancies besides multiple myeloma (MM) can potentially be targeted by BCMA directed immunotherapy, B cell malignancy cell lines were assessed for BCMA expression by flow cytometry. […] Per FIG. 1A, B cell malignancy cell lines were cultured and basal levels of BCMA were assessed by flow cytometry and compared to isotype controls. (n=3-8). Dotted line indicates no increase compared to isotype control. In accordance with FIG. 1B, cell lines were treated for 24-48h with 100nM γ-secretase inhibitor or with medium control and BCMA was assessed by flow cytometry. Values are represented as fold increase compared to 0 nM γ-secretase inhibitor. (n=3-12) Dotted line indicates no increase compared to 0 nM γ-secretase inhibitor. […] The P value was calculated by paired t test of Wilcoxon test (FIG. 1A-1B) or simple linear regression (FIG. 1E). […]
(§1) Since BCMA is known to be cleaved off by γ-secretase, it was evaluated whether inhibition of this enzyme would lead to enhanced BCMA levels on these B cell lines. […]
BCMA characterization by flow cytometry and quantitative polymerase chain reaction. […] After 24 or 48 h BCMA was detected by flow cytometry as described above. Relative expression was calculated compared to isotype controls. […]

[2] = test system: B cell malignancy cell lines; experiment: BCMA membrane level by flow cytometry after γ-secretase inhibition; type: cell-based; details: 100nM, 24-48 h, all B cell malignancy cell lines
Procedure: (§2) To evaluate whether other malignancies besides multiple myeloma (MM) can potentially be targeted by BCMA directed immunotherapy, B cell malignancy cell lines were assessed for BCMA expression by flow cytometry. […] Per FIG. 1A, B cell malignancy cell lines were cultured and basal levels of BCMA were assessed by flow cytometry and compared to isotype controls. (n=3-8). Dotted line indicates no increase compared to isotype control. In accordance with FIG. 1B, cell lines were treated for 24-48h with 100nM γ-secretase inhibitor or with medium control and BCMA was assessed by flow cytometry. Values are represented as fold increase compared to 0 nM γ-secretase inhibitor. (n=3-12) Dotted line indicates no increase compared to 0 nM γ-secretase inhibitor. FIG. 1C represents the results of an asssessment of soluble BCMA by ELISA in supernatants of B cell malignancy cell lines after treatment with 0 nM or 100 nM γ-secretase inhibitor for 24-48 h. (n=2). […] The P value was calculated by paired t test of Wilcoxon test (FIG. 1A-1B) or simple linear regression (FIG. 1E). […]
as §1
(§3) Flow cytometry. […] After antibody staining, samples were washed using PBA and acquired on BD FACS Canto or LSR Fortessa flow cytometer and analysed with FlowJo v10. […]

primary CLL cells = experiment: Viability of CLL cells under γ-secretase inhibition; type: cell-based, human; details: 100 nM γ-secretase inhibitor
Procedure: Viability of CLL cells was not affected by the inhibitor (FIG. 8A). No difference in BCMA levels, before or after γ-secretase inhibitor treatment, was observed between CLL samples with mutated and unmutated immunoglobulin heavy chain variable region gene (IgHV) status (FIG. 2C-D). Low but measurable mRNA levels of BCMA expression could be detected on CLL cells (FIG. 2E). Despite low BCMA detection by flow cytometry, sBCMA could be detected in supernatants of CLL cells, already after 24 h of culturing, which increased after 48 h (FIG. 2F).

[3] = test system: B cell malignancy cell lines; experiment: Viability of cell lines under γ-secretase inhibition; type: cell-based; details: 100nM γ-secretase inhibitor, 24-48 h
Procedure: Since BCMA is known to be cleaved off by γ-secretase, it was evaluated whether inhibition of this enzyme would lead to enhanced BCMA levels on these B cell lines. To assess this, the different B cell malignancy lines were incubated for 24-48 h with 100nM γ-secretase inhibitor (Ly411575) and BCMA fold increase was compared to unstimulated cells. Viability of the different cell lines was not affected by γ-secretase inhibition (FIG. 7A). […] Besides the cell lines which already had high basal levels of BCMA (U266, RPMI-8226, MWCL1 and BCWM.1) also cell lines which had low basal expression of BCMA, such as JeKo-1 and OCI-Ly7 were able to upregulate BCMA after γ-secretase inhibition (FIG. 1B). […] This was studied by determination of soluble BCMA (sBCMA) levels in supernatants of B cell malignancy cell lines, which were cultured for 24 or 48h in the absence or presence of γ-secretase inhibitor. Indeed, sBCMA levels were detectable upon culture of different selected cell lines (except for Jurkat), and increased upon longer culture times (FIG. 1C).

Jurkat cells = experiment: BCMA membrane level by flow cytometry after γ-secretase inhibition, Jurkat; type: cell-based; details: 100nM, 24-48 h
Procedure: as §2, §1, §3

## C[C@H](NC(=O)[C@@H](O)c1cc(F)cc(F)c1)C(=O)N[C@@H]1C(=O)N(C)c2ccccc2-c2ccccc21 [Ly411575]
[1]
  BCMA mRNA levels: remained equal
[2]
  BCMA level after γ-secretase inhibition compared to unstimulated cells: increased BCMA level
Primary CLL cells
  Viability of CLL cells: not affected
[3]
  Viability of the different cell lines: not affected
Jurkat cells
  BCMA level after γ-secretase inhibition: no upregulation of BCMA
